Laboratory results as given in patent US9487489B2, “Halogen-substituted pyrazole derivatives as pest-control agents” (BAYER CROPSCIENCE AKTIENGESELLSCHAFT, priority 2013, dated 2016).

Columns and labels:
[1] = logP determination by HPLC on a reversed-phase column (C18), EEC Directive 79/831 Annex V.A8; format: physicochemical; settings: HPLC on reversed-phase column (C18), acetonitrile/water with formic acid, EEC Directive 79/831 Annex V.A8
Procedure, shortened: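 Retention on a C18 reversed-phase column (Zorbax Eclipse Plus, 1.8 micron) was used, eluting with acetonitrile/water, each containing formic acid. The gradient ran from 10% to 95% acetonitrile over 4.25 min, then held 1.25 min, at 55° C and 2.0 ml/min, with MS detection.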

[2] = tested on: green peach aphid (Myzus persicae); assay: Myzus persicae spray test (MYZUPE); format: in vivo; settings: Chinese cabbage leaf discs, after 6 days
Method: G. Myzus persicae-spray Test (MYZUPE)
Solvents: 78 parts by weight of acetone
• 1.5 parts by weight of dimethylformamide Emulsifier: alkylaryl polyglycol ether
To produce a suitable preparation of active compound, 1 part by weight of active compound is dissolved using the stated parts by weight of solvent and made up with water comprising an emulsifier concentration of 1000 ppm until the desired concentration is reached. To produce further test concentrations, the preparation is diluted with emulsifier-containing water.
Discs of Chinese cabbage leaves (Brassica pekinensis) infested by all stages of the green peach aphid (Myzus persicae) are sprayed with an active compound preparation of the desired concentration.
After 6 days, the efficacy in % is determined 100% here means that all of the aphids have been killed; 0% means that no aphids have been killed.

[3] = tested on: larvae of the mustard beetle (Phaedon cochleariae); assay: Phaedon cochleariae spray test (PHAECO); format: in vivo; settings: Chinese cabbage leaf discs, after 7 days
Procedure, shortened: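 Compound dissolved in acetone/dimethylformamide with alkylaryl polyglycol ether emulsifier, made up in water containing 1000 ppm emulsifier, then diluted to test concentrations and sprayed against mustard beetle larvae. Efficacy (% larvae killed) scored after 7 days.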

[4] = tested on: caterpillars of the armyworm (Spodoptera frugiperda); assay: Spodoptera frugiperda spray test (SPODFR); format: in vivo; settings: maize leaf discs, after 7 days
Procedure, shortened: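 Maize leaf discs sprayed with compound in acetone/DMF with alkylaryl polyglycol ether emulsifier (1000 ppm) in water, dried, then infested with armyworm caterpillars. Mortality (%) scored after 7 days; 100% = all caterpillars killed, 0% = none killed.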

[5] = tested on: greenhouse red spider mite (Tetranychus urticae); assay: Tetranychus urticae spray test, OP-resistant (TETRUR); format: in vivo; settings: bean leaf discs, after 6 days
Procedure, shortened: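 Bean leaf discs carrying all stages of OP-resistant Tetranychus urticae were sprayed with compound formulated in acetone/dimethylformamide and diluted in water with 1000 ppm alkylaryl polyglycol ether emulsifier. Mortality (% efficacy, 100% = all mites killed) scored after 6 days.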

[6] = tested on: engorged adult female cattle ticks (Boophilus microplus); assay: Boophilus microplus injection test (BOOPMI Inj); format: in vivo; settings: application rate 20 μg/animal; injection into abdomen; assessed after 7 days
Procedure, shortened: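 DMSO solution of compound (1 μl) injected into the abdomen of 5 engorged adult female ticks, which are then held in a climate-controlled room. After 7 days, efficacy is scored from laying of fertile eggs, with unclear eggs kept until larval hatch (~42 days); 100% means no fertile eggs, 0% all fertile.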

[7] = tested on: adult cat fleas (Ctenocephalides felis); assay: Ctenocephalides felis oral test (CTECFE); format: in vivo; settings: application rate 100 ppm in citrated cattle blood; after 2 days
Procedure, shortened: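 About 20 unfed adult cat fleas fed through parafilm membrane on citrated cattle blood containing compound (DMSO stock diluted in blood to test concentration). Kill % scored after 2 days (100% = all fleas dead).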

[8] = tested on: L1 larvae of the Australian sheep blowfly (Lucilia cuprina); assay: Lucilia cuprina test (LUCICU); format: in vivo; settings: application rate 100 ppm; after 2 days
Procedure, shortened: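 About 20 L1 larvae placed in a vessel with minced horsemeat plus compound (DMSO concentrate diluted with water to the desired concentration). Kill in % scored after 2 days, 100% meaning all larvae dead.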

[9] = tested on: adult houseflies (Musca domestica); assay: Musca domestica test (MUSCDO); format: in vivo; settings: application rate 100 ppm; after 2 days
Method: F. Musca domestica Test (MUSCDO)
Solvent: dimethyl sulphoxide
To produce a suitable preparation of active compound, 10 mg of active compound are mixed with 0.5 ml of dimethyl sulphoxide, and the concentrate is diluted with water to the desired concentration.
Vessels containing a sponge treated with sugar solution and the active compound preparation of the desired concentration are populated with 10 adult houseflies (Musca domestica).
After 2 days, the kill in % is determined. 100% means that all of the flies have been killed; 0% means that none of the flies have been killed.

[10] = tested on: adult dog ticks (Rhipicephalus sanguineus); assay: Rhipicephalus sanguineus in vitro contact test with adult brown dog ticks (T2); settings: after 48 h
Procedure, shortened: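 Acetone solutions coated onto test tube walls and floor, giving 5 μg/cm^2 at 900 ppm. Five to ten adult ticks held per tube in the dark at room temperature for 48 h, then heated at 45-50° C for up to 5 min; efficacy is the percentage of dead or moribund ticks unable to climb away.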

[11] = tested on: adult cat fleas (Ctenocephalides felis); assay: Ctenocephalides felis in vitro contact test with adult cat fleas (T1); settings: application rate 5 μg/cm^2; after 48 h
Procedure, shortened: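 Test compound was dissolved in acetone p.a. (9 mg per 1 ml) and diluted as needed. 250 μl was spread evenly over the inner walls and floor of a 25 ml test tube by rotating on an orbital shaker for 2 h at 30 rpm. Once the solvent evaporated, 5-10 adult Ctenocephalides felis were added. Tubes were capped with a perforated plastic lid and kept horizontal at room temperature and ambient humidity.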

Compound	logP [1]	efficacy in % ([2]; application rate 100 g/ha) [%]	efficacy in % ([3]; application rate 100 g/ha) [%]	efficacy in % ([4]; application rate 100 g/ha) [%]	efficacy in % ([5]; application rate 100 g/ha) [%]	efficacy (laying of fertile eggs) [6] [%]	efficacy (kill in %) [7] [%]	efficacy (kill in %) [8] [%]	efficacy (kill in %) [9] [%]	efficacy (dead or moribund ticks) ([10]; application rate 1 μg/cm^2) [%]	efficacy in % ([2]; application rate 500 g/ha) [%]	efficacy in % ([3]; application rate 500 g/ha) [%]	efficacy in % ([4]; application rate 500 g/ha) [%]	efficacy in % ([5]; application rate 500 g/ha) [%]	efficacy (dead or moribund ticks) ([10]; application rate 5 μg/cm^2) [%]	efficacy (dead or moribund fleas) [11] [%]
Cn1nc(C(F)(F)F)c(C(F)(F)F)c1-n1cc(-c2ccc(Cl)c(C(=O)NC3CC3)c2)cn1 [Ic-126]	3.42	100	100	100	100											
COc1ccc(-c2cnn(-c3c(C(F)(F)F)c(C(F)(F)C(F)(F)F)nn3C)c2)cc1C(=O)NC1(C#N)CC1 [Ic-67]	3.77		100		100	100	100	100	95	80						
Cn1nc(C(F)(F)C(F)(F)F)c(C(F)(F)F)c1-n1cc(-c2ccc(Cl)c(C(=O)NC3CC3C(F)(F)F)c2)cn1 (stereo not drawn) [Ic-181]	4.26										100	100	100	100		
Cn1nc(C(F)(F)C(F)(F)F)c(C(F)(F)F)c1-n1cc(-c2ccc(S(C)(=O)=O)c(C(=O)NC3CC3)c2)cn1 [Ic-190]	3.35	100	100	100	100											
Cn1nc(C(F)(F)C(F)(F)F)c(C(F)(F)F)c1-n1cc(-c2ccc(Cl)c(C(=O)NC3CC(S(C)(=O)=O)C3)c2)cn1 (stereo not drawn) [Ic-122]	3.24	90	100	100	100											
CC(CC1CC1)NC(=O)c1cc(-c2cnn(-c3c(C(F)(F)F)c(C(F)(F)C(F)(F)F)nn3C)c2)ccc1Cl (stereo not drawn) [Ic-161]						100	100	100	80	80		100	100	100	100	
Cn1nc(C(F)(F)F)c(C(F)(F)F)c1-n1cc(-c2ccc(Cl)c(C(=O)NC3(C#N)CC3)c2)cn1 [Ic-127]	3.3	100	100	100	100											
CCO[C@@H]1C[C@H]1NC(=O)c1cc(-c2cnn(-c3c(C(F)(F)F)c(C(F)(F)C(F)(F)F)nn3C)c2)ccc1Cl [Ic-180]	3.99										90	100	100	100		
CCN(CC)S(=O)(=O)c1ccc(-c2cnn(-c3c(C(F)(F)F)c(C(F)(F)C(F)(F)F)nn3C)c2)cc1C(=O)NC1CC1 [Ic-185]	3.99	100	100	100	100											
Cn1nc(C(F)(F)C(F)(F)F)c(C(F)(F)F)c1-n1cc(-c2ccc(Cl)c(C(=O)NC3C[S+]([O-])C3)c2)cn1 (stereo not drawn) [Ic-116]	3.03										90	100	100	100		
COc1ccc(-c2cnn(-c3c(C(F)(F)F)c(C(F)(F)C(F)(F)F)nn3C)c2)cc1C(=O)NC1CC1 [Ic-68]	3.86		100	83	100	100	100	100	80	100						100
Cn1nc(C(F)(F)F)c([S+](C)[O-])c1-n1cc(-c2ccc(Cl)c(C(=O)NC3(C#N)CC3)c2)cn1 (stereo not drawn) [Ic-134]	2.16	100	100		100											
Cn1nc(C(F)(F)C(F)(F)F)c(C(F)(F)F)c1-n1cc(-c2cc(C(=O)NC3(C#N)CC3)ncc2F)cn1 [Ic-73]				100	100	100	100	100	90	80		100	100		80	
Cn1nc(C(F)(F)C(F)(F)F)c(C=O)c1-n1cc(-c2ccc(Cl)c(C(=O)NC3(C#N)CC3)c2)cn1 [Ic-121]	3.09	100	100		100											
Cn1nc(C(F)(F)C(F)(F)F)c(C(F)(F)F)c1-n1cc(-c2ccc(Cl)c(C(=O)Nc3ccc(Cl)cc3)c2)cn1 [Ic-25]	4.93		100	100		100	95	100	90	100					100	
Cn1nc(C(F)(F)C(F)(F)F)c(C(F)(F)F)c1-n1cc(-c2cc(C(=O)NC3CC3)cc(C(F)(F)F)c2)cn1 [Ic-59]					90	100	100	100	100	100		100	100			
